Data taken from ChEMBL document CHEMBL5058564, “EUbOPEN Chemogenomics Library 2 (Incucyte)” (2022).

Legend:
Assay type in all cases: toxicity, cell-based
HEK-293T = assay: Incucyte cell viability with HEK293T; details: human, 10 µM, compound concentration 10 uM
U2OS = assay: Incucyte cell viability with U2OS; details: human, 10 µM, compound concentration 10 uM
Fibroblast = assay: Incucyte cell viability with human fibroblast; details: 10 µM, compound concentration 10 uM
[1] = 0 h, replicate number 1, timepoint 0 hours
[2] = 0 h, replicate number 2, timepoint 0 hours
[3] = 6 h, replicate number 1, timepoint 6 hours
[4] = 12 h, replicate number 1, timepoint 12 hours
[5] = 18 h, replicate number 1, timepoint 18 hours
[6] = 24 h, replicate number 1, timepoint 24 hours
[7] = 24 h, replicate number 2, timepoint 24 hours
[8] = 6 h, replicate number 2, timepoint 6 hours
[9] = 12 h, replicate number 2, timepoint 12 hours
[10] = 18 h, replicate number 2, timepoint 18 hours
Also: unitless GR value; below 1 slowed growth and below 0 cell loss.

Row | SMILES | Growth Rate (HEK-293T; [1]) | Growth Rate (HEK-293T; [2]) | Growth Rate (HEK-293T; [3]) | Growth Rate (HEK-293T; [4]) | Growth Rate (HEK-293T; [5]) | Growth Rate (HEK-293T; [6]) | Growth Rate (HEK-293T; [7]) | Growth Rate (U2OS; [1]) | Growth Rate (U2OS; [2]) | Growth Rate (U2OS; [3]) | Growth Rate (U2OS; [4]) | Growth Rate (U2OS; [5]) | Growth Rate (Fibroblast; [5]) | Growth Rate (Fibroblast; [6]) | Growth Rate (U2OS; [10]) | Growth Rate (Fibroblast; [3]) | Growth Rate (Fibroblast; [4]) | Growth Rate (Fibroblast; [9]) | Growth Rate (Fibroblast; [10]) | Growth Rate (Fibroblast; [7]) | also measured
1 | O=C([O-])[C@H]1O[C@H](OP(=O)([O-])OP(=O)([O-])OC[C@H]2O[C@@H](n3ccc(=O)[nH]c3=O)[C@H](O)[C@@H]2O)[C@H](O)[C@@H](O)[C@@H]1O.[Na+].[Na+].[Na+] | 0.81 | -0.02 | 0.43 | 0.65 | 0.64 | 0.84 | 0.91 | 0.32 | 0.71 | 0.46 | 0.9 | 0.9 | 0.88 | 0.93 | – | – | – | – | – | – | Growth Rate (Fibroblast; [2]): 0.57
2 | O=S(=O)(c1ccccc1)N(CC(F)(F)F)c1ccc(C(O)(C(F)(F)F)C(F)(F)F)cc1 [T091317] | 0.85 | – | 0.85 | 0.42 | 0.24 | 0.37 | 0.53 | 0.14 | -0.29 | 0.74 | – | 0.98 | -0.3 | -0.32 | 0.76 | 0.72 | -0.09 | 0.22 | 0.05 | 0.05 | Growth Rate (HEK-293T; [8]): 0.77; Growth Rate (HEK-293T; [9]): 0.75; Growth Rate (HEK-293T; [10]): 0.56; Growth Rate (U2OS; [9]): 0.83; Growth Rate (U2OS; [7]): 0.81
3 | Brc1c(N=C2NCCN2)ccc2nccnc12.O=C(O)C(O)C(O)C(=O)O | 0.76 | 0.92 | 0.47 | 0.79 | 0.92 | 0.83 | 0.88 | 0.29 | – | 0.6 | 0.41 | 0.78 | 0.86 | 0.87 | 0.91 | 0.39 | 0.82 | 0.94 | 0.83 | 0.91 | Growth Rate (HEK-293T; [8]): 0.95; Growth Rate (HEK-293T; [9]): 0.72; Growth Rate (U2OS; [6]): 0.89; Growth Rate (Fibroblast; [2]): 0.6; Growth Rate (Fibroblast; [8]): 0.7
4 | COc1cc(C(=O)N2CC[C@@H](O)[C@@H](N)C2)cc2nc(-c3cc4ccccc4n3CC3CC3)n(C)c12.Cl | – | – | 0.71 | 0.85 | 0.88 | 0.77 | – | -0.04 | 0.15 | 0.61 | – | – | -0.63 | -0.52 | 0.99 | -0.98 | -0.8 | -0.18 | -0.01 | 0.15 | Growth Rate (U2OS; [9]): 0.98; Growth Rate (Fibroblast; [8]): -0.57
